Results: PubChem BioAssay AID328 (DTP/NCI, 2004)
Values joined by “and” are separate entries in the source; they are usually repeats but may differ in a detail not shown here. Equal entries are not always repeated. Toxic doses and inconclusive results are not listed. Residues, ends and D or L forms follow the SMILES beside them. *: point of attachment. Cbz = O=C(OCc1ccccc1)*; Bn = c1ccc(C*)cc1

Test system: BDF1 mice, P388 leukemia ip, median survival T/C
Test: NCI In Vivo Anticancer Drug Screen. Data for tumor model P388 Leukemia (intraperitoneal) in B6D2F1 (BDF1) mice
Settings: endpoint: median survival time, higher = longer survival
How it was run: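 Compound-treated tumour-bearing mice were compared with vehicle-treated controls. Survival was recorded, and the value is the treated-group measurement divided by the control-group measurement (T/C).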

[1] = dose: 50.0 mg/kg/injection, schedule: Q01DX009 (ip), vehicle: Klucel (hydroxypropylcellulose) (HPC)
[2] = dose: 50.0 mg/kg/injection, schedule: Q01DX009 (ip), vehicle: saline with Tween-80
[3] = dose: 100.0 mg/kg/injection, schedule: Q01DX009 (ip), vehicle: saline with Tween-80
[4] = dose: 12.5 mg/kg/injection, schedule: Q01DX009 (ip), vehicle: saline with Tween-80
[5] = dose: 25.0 mg/kg/injection, schedule: Q01DX009 (ip), vehicle: saline with Tween-80
[6] = dose: 50.0 mg/kg/injection, schedule: Q04DX003 (ip), vehicle: saline with Tween-80
[7] = dose: 200.0 mg/kg/injection, schedule: Q04DX003 (ip), vehicle: Klucel (hydroxypropylcellulose) (HPC)
[8] = dose: 6.25 mg/kg/injection, schedule: Q01DX009 (ip), vehicle: saline
[9] = dose: 12.5 mg/kg/injection, schedule: Q01DX009 (ip), vehicle: saline
[10] = dose: 25.0 mg/kg/injection, schedule: Q01DX009 (ip), vehicle: saline
[11] = dose: 25.0 mg/kg/injection, schedule: Q04DX003 (ip), vehicle: saline sonified
[12] = dose: 50.0 mg/kg/injection, schedule: Q04DX003 (ip), vehicle: saline sonified
[13] = dose: 100.0 mg/kg/injection, schedule: Q04DX003 (ip), vehicle: saline sonified

c1ccc([As+](c2ccccc2)(c2ccccc2)c2ccccc2)cc1
T/C (dose: 0.1 mg/kg/injection, schedule: Q04DX003 (ip), vehicle: saline): 110 % of control
T/C (dose: 0.15 mg/kg/injection, schedule: Q01DX009 (ip), vehicle: saline): 105 % of control
T/C (dose: 0.15 mg/kg/injection, schedule: Q04DX003 (ip), vehicle: saline): 105 % of control
T/C (dose: 0.23 mg/kg/injection, schedule: Q01DX009 (ip), vehicle: saline): 116 % of control
T/C (dose: 0.36 mg/kg/injection, schedule: Q04DX003 (ip), vehicle: saline): 110 % of control
T/C (dose: 0.54 mg/kg/injection, schedule: Q01DX009 (ip), vehicle: saline): 122 % of control
T/C (dose: 0.55 mg/kg/injection, schedule: Q04DX003 (ip), vehicle: saline): 165 % of control
T/C (dose: 2.4 mg/kg/injection, schedule: Q01DX009 (ip), vehicle: saline): 184 % of control
T/C (dose: 2.5 mg/kg/injection, schedule: Q01DX009 (ip), vehicle: saline): 155 % of control
T/C (dose: 3.75 mg/kg/injection, schedule: Q01DX009 (ip), vehicle: saline): 160 % of control and 161 % of control and 184 % of control
T/C (dose: 5.0 mg/kg/injection, schedule: Q04DX003 (ip), vehicle: saline): 150 % of control and 160 % of control
T/C (dose: 5.6 mg/kg/injection, schedule: Q01DX009 (ip), vehicle: saline): 121 % of control
T/C (dose: 5.63 mg/kg/injection, schedule: Q01DX009 (ip), vehicle: saline): 165 % of control
T/C (dose: 7.5 mg/kg/injection, schedule: Q04DX003 (ip), vehicle: saline): 150 % of control

COc1cccc(C2N=NC3=C(CCCC3)N2O)c1O (stereo not drawn)
T/C (dose: 25.0 mg/kg/injection, schedule: Q01DX009 (ip), vehicle: Klucel (hydroxypropylcellulose) (HPC)): 95 % of control
T/C [1]: 87 % of control
T/C (dose: 200.0 mg/kg/injection, schedule: Q01DX009 (ip), vehicle: Klucel (hydroxypropylcellulose) (HPC)): 96 % of control

CS(=O)CC(O)(c1ccc(F)cc1)C1CC1 (stereo not drawn)
T/C [2]: 99 % of control
T/C [3]: 103 % of control

CC(C)(C)OC(=O)NOc1ccc([N+](=O)[O-])cc1[N+](=O)[O-]
T/C (dose: 3.12 mg/kg/injection, schedule: Q01DX009 (ip), vehicle: saline with Tween-80): 117 % of control
T/C (dose: 6.25 mg/kg/injection, schedule: Q01DX009 (ip), vehicle: saline with Tween-80): 90 % of control
T/C (dose: 6.25 mg/kg/injection, schedule: Q04DX003 (ip), vehicle: saline with Tween-80): 100 % of control
T/C [4]: 106 % of control and 93 % of control
T/C (dose: 12.5 mg/kg/injection, schedule: Q04DX003 (ip), vehicle: saline with Tween-80): 104 % of control
T/C [5]: 90 % of control and 96 % of control
T/C (dose: 25.0 mg/kg/injection, schedule: Q04DX003 (ip), vehicle: saline with Tween-80): 97 % of control
T/C [2]: 93 % of control
T/C [6]: 97 % of control
T/C [3]: 100 % of control

CC(C)CC(NC(=O)C1CCCN1C(=O)C(CSCc1ccccc1)NC(=O)C(CC(N)=O)NC(=O)C(CCC(N)=O)NC(=O)OCc1ccccc1)C(=O)NCC(N)=O (stereo not drawn) (Cbz-QNC(Bn)PLG-NH2; configuration not given here)
T/C (dose: 100.0 mg/kg/injection, schedule: Q04DX003 (ip), vehicle: Klucel (hydroxypropylcellulose) (HPC)): 105 % of control
T/C [7]: 102 % of control
T/C (dose: 400.0 mg/kg/injection, schedule: Q04DX003 (ip), vehicle: Klucel (hydroxypropylcellulose) (HPC)): 98 % of control

COc1ccc(CC(=O)N2CCc3cc(OC)c(OC)cc3C2O)cc1OC (stereo not drawn)
T/C [4]: 101 % of control
T/C [5]: 89 % of control
T/C [2]: 94 % of control
T/C [3]: 114 % of control

Clc1ccc(-c2nc3ncccn3n2)cc1
T/C [4]: 106 % of control
T/C [5]: 95 % of control
T/C [2]: 91 % of control and 95 % of control
T/C (dose: 200.0 mg/kg/injection, schedule: Q01DX009 (ip), vehicle: saline with Tween-80): 101 % of control

CC1(C)C=CN2C(=O)C3=CCCN3C(=O)C2CC12Nc1ccccc1C2=O (stereo not drawn)
T/C [8]: 94 % of control
T/C [9]: 104 % of control
T/C [10]: 110 % of control
T/C (dose: 50.0 mg/kg/injection, schedule: Q01DX009 (ip), vehicle: saline): 100 % of control

CCC1CN1CC1CO1 (stereo not drawn)
T/C (dose: 8.3 mg/kg/injection, schedule: Q04DX003 (ip), vehicle: Klucel (hydroxypropylcellulose) (HPC)): 110 % of control
T/C (dose: 12.0 mg/kg/injection, schedule: Q04DX003 (ip), vehicle: Klucel (hydroxypropylcellulose) (HPC)): 120 % of control
T/C (dose: 29.0 mg/kg/injection, schedule: Q04DX003 (ip), vehicle: Klucel (hydroxypropylcellulose) (HPC)): 119 % of control
T/C [7]: 204 % of control
T/C (dose: 300.0 mg/kg/injection, schedule: Q04DX003 (ip), vehicle: Klucel (hydroxypropylcellulose) (HPC)): 190 % of control and 218 % of control

Cc1[nH]c2cc(Br)ccc2c1/C=N/NC(N)=S
T/C (dose: 25.0 mg/kg/injection, schedule: Q01DX001 (ip), vehicle: Klucel (hydroxypropylcellulose) (HPC)): 107 % of control
T/C (dose: 50.0 mg/kg/injection, schedule: Q01DX001 (ip), vehicle: Klucel (hydroxypropylcellulose) (HPC)): 102 % of control
T/C (dose: 100.0 mg/kg/injection, schedule: Q01DX001 (ip), vehicle: Klucel (hydroxypropylcellulose) (HPC)): 103 % of control

NC(=O)C12CCCCC1CCC(=O)C2 (stereo not drawn)
T/C [11]: 105 % of control
T/C [12]: 100 % of control
T/C [13]: 95 % of control

CC(C)(C)C1CC[N-]CC1.CC(C)(C)C1CC[N-]CC1.[Cl][Pt+2]([Cl])([Cl])[Cl]
T/C (dose: 0.78 mg/kg/injection, schedule: Q01DX009 (ip), vehicle: saline): 110 % of control
T/C (dose: 1.56 mg/kg/injection, schedule: Q01DX009 (ip), vehicle: saline): 115 % of control and 117 % of control
T/C (dose: 3.12 mg/kg/injection, schedule: Q01DX009 (ip), vehicle: saline): 100 % of control and 102 % of control and 111 % of control
T/C [8]: 86 % of control and 108 % of control
T/C [9]: 115 % of control
T/C [10]: 91 % of control and 115 % of control

Nc1nc(=S)c2[nH]c(=S)[nH]c2[nH]1
T/C (dose: 78.0 mg/kg/injection, schedule: Q04DX003 (ip), vehicle: saline with Tween-80): 104 % of control
T/C (dose: 118.0 mg/kg/injection, schedule: Q04DX003 (ip), vehicle: saline with Tween-80): 112 % of control
T/C (dose: 400.0 mg/kg/injection, schedule: Q04DX003 (ip), vehicle: saline with Tween-80): 172 % of control
T/C (dose: 600.0 mg/kg/injection, schedule: Q04DX003 (ip), vehicle: saline with Tween-80): 186 % of control

O=C(O)c1ccccc1NC(=O)C(F)(F)F
T/C [11]: 91 % of control
T/C [12]: 91 % of control
T/C [13]: 91 % of control

c1ccc(CC(Cc2ccccc2)c2nc3ccccc3s2)cc1
T/C (dose: 75.0 mg/kg/injection, schedule: Q04DX003 (ip), vehicle: saline): 100 % of control
T/C (dose: 150.0 mg/kg/injection, schedule: Q04DX003 (ip), vehicle: saline): 100 % of control
T/C (dose: 300.0 mg/kg/injection, schedule: Q04DX003 (ip), vehicle: saline): 95 % of control

COc1cccnc1/C=N/NC(N)=S
T/C (dose: 1.5 mg/kg/injection, schedule: Q01DX009 (ip), vehicle: saline with Tween-80): 115 % of control
T/C (dose: 3.0 mg/kg/injection, schedule: Q01DX009 (ip), vehicle: saline with Tween-80): 118 % of control
T/C (dose: 5.0 mg/kg/injection, schedule: Q01DX009 (ip), vehicle: saline with Tween-80): 157 % of control
T/C (dose: 8.0 mg/kg/injection, schedule: Q01DX009 (ip), vehicle: saline with Tween-80): 158 % of control
T/C (dose: 12.0 mg/kg/injection, schedule: Q01DX009 (ip), vehicle: saline with Tween-80): 158 % of control and 175 % of control

CC(=O)N=C1C=C(NC(C)=O)C(=O)c2ncccc21
T/C [6]: 109 % of control
T/C (dose: 100.0 mg/kg/injection, schedule: Q04DX003 (ip), vehicle: saline with Tween-80): 122 % of control
T/C (dose: 200.0 mg/kg/injection, schedule: Q04DX003 (ip), vehicle: saline with Tween-80): 86 % of control

O=S1(=O)CCN(C2CC2)CC1
T/C [1]: 104 % of control

CCCCCCCCCC(=O)NO
T/C (dose: 100.0 mg/kg/injection, schedule: Q01DX001 (ip), vehicle: saline sonified): 100 % of control
T/C (dose: 200.0 mg/kg/injection, schedule: Q01DX001 (ip), vehicle: saline sonified): 100 % of control
T/C (dose: 400.0 mg/kg/injection, schedule: Q01DX001 (ip), vehicle: saline sonified): 100 % of control
